“And” between values parts separate entries of the source, which are not always exact repeats. Identical values can stand only once. Ends that are not written are not given here.
Experiments:
mCherry mRNA = experiment: Gel shift assay, complexation capacity of CPP with mRNA; assay type: physicochemical; conditions: 350 ng mCherry mRNA, n = 3
Protocol: The mRNA was diluted in RNase-free water at 100 ng/μL and incubated with CPPs (1 μg/μL in RNase-free water) at room temperature (RT) for 1 h at 200 rpm. For in vitro studies, CPP/mRNA complexes were diluted with 1× PBS by adding 10× PBS after complexation. To visualize the complexation of mRNA and CPP, 350 ng of mCherry mRNA was mixed with increasing amounts of CPP and a gel shift assay was performed using a 1% agarose gel. Complexation capacity was measured based on mRNA band intensities by Image J. Complexation capacity (%) = 100 − ((Band intensity of mRNA)/(Band intensity of initial mRNA) × 100))

CT26.CL25 cells [1] = experiment: EGFP expression, flow cytometry; assay type: cell-based, mouse; conditions: CT26.CL25, EGFP mRNA 6.8 nM, 24 h, right plot of Figure 6B (amphipathic CPPs)
Protocol: (§1) To measure expression efficiency, cells seeded on a 35 mm glass bottom dish were incubated in 1.5 mL of serum-free media for 2 h. After incubation, mCherry mRNA with Lipofectamine 3000 or CPPs were treated for 3 h, washed, and incubated in complete medium for an additional 21 h. The expression of mCherry protein was visualized with a fluorescence microscope (EVOS M7000, ThermoFisher). The expression efficiency was calculated by counting the number of cells expressing fluorescence in the total number of cells. For quantification of expression efficiency, flow cytometry analyses were examined after 24 h treatment with CPP/EGFP mRNA. CT26.CL25 cells were collected with PBS and EGFP-expressing cells were measured by a CytoFLEX flow cytometer (Beckman Coulter) using FlowJo v10 software.

CT26.CL25 cells [2] = experiment: Cellular uptake of fluorescein-labeled mRNA, flow cytometry; assay type: cell-based, mouse; conditions: CT26.CL25, 3 μg (6.8 nM) fluorescein-labeled mCherry mRNA with CPP or Lipofectamine 3000, serum-free media, 3 h, n = 3
Protocol: For the cellular uptake test, mCherry mRNA was labeled with fluorescein dye using the Label IT nucleic acid labeling kit (MIR 3200) (Mirus Bio, Madison, WI, USA). CT26.CL25 cells plated on a 35 mm glass bottom dish were incubated in 1.5 mL of serum-free media for 2 h. […] After treatment, CT26.CL25 cells were collected with PBS and FITC-positive cells were measured by a CytoFLEX flow cytometer (Beckman Coulter, Palo Alto, CA, USA) using FlowJo v10 software.

[3] = Size and zeta-potential of CPP/mRNA complexes by DLS; assay type: physicochemical; conditions: for Particle Size / PDI / Zeta Potential: CPP/mRNA complex at the N/P ratio of Table 2; for Particle Size / PDI: DLS; for Particle Size / Zeta Potential: Zetasizer Nano ZS; for Particle Size: 50 μg CPP in 1 mL distilled water; for PDI / Zeta Potential: distilled water; for N/P Ratio (lowest N/P ratio to form the nanocomplexes): CPP/mRNA complex, amine groups of peptide to phosphate groups of mRNA
Protocol: The size and zeta-potential of CPP/mRNA complexes were measured by dynamic light scattering (DLS) using Zetasizer Nano ZS (Malvern Instruments, Malvern, UK); 50 μg of CPPs mixed with an optimized amount of mRNA were diluted in 1 mL of distilled water and then transferred to a cuvette.

CT26.CL25 cells [4] = experiment: mCherry protein expression, fluorescence microscopy; assay type: cell-based, mouse; conditions: CT26.CL25, CPP/mCherry mRNA 6.8 nM, 24 h after treatment, n = 3
Protocol: as §1

Row | Substance | amount of CPP at which complete complexes formed (mCherry mRNA) [nmol] | EGFP-expressing cells (CT26.CL25 cells [1]) [%] | FITC-positive cells (cellular uptake) (CT26.CL25 cells [2]) | Particle Size [3] | PDI [3] | Zeta Potential [3] | N/P Ratio (lowest N/P ratio to form the nanocomplexes) [3] | mCherry-positive cells (CT26.CL25 cells [4])
1 | WEARLARALARALARHLARALARALRACEA [amphipathic cell-penetrating peptide, synthesized by Peptron] | 1.0 | 29.5 | 99.9% and > 85% | 174.6 (±3.7) nm | 0.23 | +20.2 (±1.7) mV | 9.7 | 28.9%
2 | Stearyl-RRRRRRRR [STR-Arg8, Stearyl-poly-Arginine8, amphipathic CPP, stearyl moiety introduced into Arg8] | – | 14.6 | 87.3% and > 85% | 156.8 (±4.7) nm | 0.28 | +28.6 (±0.3) mV | 7.8 | 4.9%
3 | Penetratin | – | – | 28.7% | – | – | – | – | incapable of protein expression
4 | VSRRRRRRGGRRRR [LMWP, low molecular weight protamine, cationic cell-penetrating peptide, synthesized by Peptron] | – | – | 24.1% | 129.5 (±0.3) nm | 0.22 | +22.5 (±0.0) mV | 1.9 | –

From article PMC9227323, “The Potential of Cell-Penetrating Peptides for mRNA Delivery to Cancer Cells” (Pharmaceutics, 2022)
